# From PubChem BioAssay AID493117 (Broad Institute, 2011)
# Records with an inconclusive call do not appear. Calls of active or inactive are those of the source.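 Rule for the calls: active = every test run gives a fitted half-maximal dose no higher than ten times the top tested dose, with signal falling; inconclusive = runs disagree, or a flat mid-level drop or poor fit; inactive = every test run inactive.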
# Biological target: Autoinducer 2-binding periplasmic protein LuxP (Vibrio harveyi) + Autoinducer 2 sensor kinase/phosphatase LuxQ (Vibrio harveyi) (UniProt P54300+P54302)
# Sequence (P54300 whole entry, looked up): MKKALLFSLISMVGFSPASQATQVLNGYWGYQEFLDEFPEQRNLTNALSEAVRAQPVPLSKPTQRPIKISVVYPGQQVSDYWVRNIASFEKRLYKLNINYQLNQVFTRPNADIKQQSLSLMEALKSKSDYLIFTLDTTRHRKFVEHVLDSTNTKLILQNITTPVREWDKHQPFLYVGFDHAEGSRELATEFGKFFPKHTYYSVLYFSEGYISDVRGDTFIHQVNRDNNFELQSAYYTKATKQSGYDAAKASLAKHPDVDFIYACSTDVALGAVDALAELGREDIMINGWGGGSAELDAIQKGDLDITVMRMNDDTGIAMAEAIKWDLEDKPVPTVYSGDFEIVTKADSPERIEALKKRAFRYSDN
# Sequence (P54302 whole entry, looked up): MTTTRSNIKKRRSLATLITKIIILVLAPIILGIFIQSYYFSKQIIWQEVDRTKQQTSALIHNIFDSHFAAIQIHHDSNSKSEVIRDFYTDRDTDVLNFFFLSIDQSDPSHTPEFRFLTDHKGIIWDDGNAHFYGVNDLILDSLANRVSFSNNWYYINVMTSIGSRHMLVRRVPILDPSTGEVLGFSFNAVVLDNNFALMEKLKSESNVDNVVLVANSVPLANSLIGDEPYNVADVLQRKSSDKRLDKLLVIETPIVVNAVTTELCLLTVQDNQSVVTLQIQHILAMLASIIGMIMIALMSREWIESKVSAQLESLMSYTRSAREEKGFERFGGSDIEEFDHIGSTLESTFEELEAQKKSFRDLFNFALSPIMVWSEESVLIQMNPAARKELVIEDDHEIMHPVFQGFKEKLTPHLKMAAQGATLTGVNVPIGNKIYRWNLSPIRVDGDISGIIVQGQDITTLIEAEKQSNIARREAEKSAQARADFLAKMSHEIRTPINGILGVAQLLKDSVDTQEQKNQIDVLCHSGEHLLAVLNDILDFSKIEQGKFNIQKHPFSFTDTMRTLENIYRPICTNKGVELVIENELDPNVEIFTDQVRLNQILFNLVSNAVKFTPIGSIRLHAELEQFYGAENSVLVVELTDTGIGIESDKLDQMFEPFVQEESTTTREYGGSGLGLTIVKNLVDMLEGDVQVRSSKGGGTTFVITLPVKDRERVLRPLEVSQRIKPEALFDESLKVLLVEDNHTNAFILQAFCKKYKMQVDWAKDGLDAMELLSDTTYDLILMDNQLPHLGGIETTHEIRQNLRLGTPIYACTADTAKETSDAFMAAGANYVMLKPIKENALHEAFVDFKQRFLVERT
# Assay: AI-2 driven bioluminescence decrease, LuxPQ pathway – strain MM32 LuxS-null, luminescence, dry powder, set 3, mechanism study for V. harveyi quorum sensing inhibitors, dose response (AID 493117)
# Details: AI-2 luminescence, 5 h; for activity change, negative = inhibition: at 16 µM (top of the series)
SMILES,"activity change, negative = inhibition",AC50 [µM]
C[C@H](CO)N1C[C@H](C)[C@H](CN(C)Cc2ccc(C(=O)O)cc2)Oc2ncc(-c3ccc(C(=O)N(C)C)cc3)cc2C1=O,inactive,–
C=Cn1c(C(=O)O)ccc1-c1cccs1,inactive,–
COc1ccccc1NS(=O)(=O)c1cn(C)cn1,inactive,–
O=S(=O)(Nc1cccnc1)c1ccc(Oc2ccccc2)cc1,–,0.591
C=Cn1c(C(=O)O)ccc1-c1ccc(Cl)cc1,–,4.46
Cn1cnc(S(=O)(=O)Nc2ccccc2F)c1,inactive,–
C=Cn1c(C(=O)O)ccc1-c1ccc(CC)cc1,–,2.32
O=S(=O)(Nc1ccccn1)c1ccc(Oc2ccccc2)cc1,–,1.35
O=C1C=C/C(=C/Br)O1,–,3.45
C[C@@H]1CN([C@H](C)CO)C(=O)c2ccccc2-c2ccccc2CO[C@@H]1CN(C)Cc1ccc(Oc2ccccc2)cc1,–,11.3
Cn1cnc(S(=O)(=O)Nc2ccc(OC(F)(F)F)cc2)c1,–,2.42

# Second part, the compound after the results:
"activity change, negative = inhibition",AC50 [µM],SMILES
inactive,–,CCc1ccc(-c2ccc(C(=O)O)n2CC)cc1
inactive,–,O=S(=O)(Nc1ccccn1)c1ccccc1
–,7.08,C=Cn1c(C(=O)O)ccc1-c1ccc(OC)cc1
–,18.4,Cc1noc(C)c1S(=O)(=O)Nc1ccc2c(c1)C(=O)N([C@@H](C)CO)C[C@@H](C)[C@@H](CN(C)Cc1ccc(Oc3ccccc3)cc1)O2
inactive,–,Cn1cnc(S(=O)(=O)Nc2ccccc2Cl)c1
inactive,–,CC(=O)Nc1ccccc1NS(=O)(=O)c1cn(C)cn1
–,3.61,CCc1ccc(-c2ccc(C(=O)O)n2C)cc1
inactive,–,Cc1ccccc1NS(=O)(=O)c1cn(C)cn1
inactive,–,CN(C)C(=O)c1ccccc1NS(=O)(=O)c1cn(C)cn1
